The source of these data is patent publication US11382883B2, “Intermediate metabolism products to potentiate aminoglycoside antibiotics in bacterial infections” (TRUSTEES OF BOSTON UNIVERSITY, priority 2013, dated 2022).

“Also recorded” adds a separate entry of the source.

Data set [1] concerns P. aeruginosa stationary phase cells. Nature of the data set: Stationary phase cells eradication: carbon sources plus tobramycin, survival by c.f.u. counting. The format is cell-based, Pseudomonas aeruginosa. The procedure:
Cells from frozen stock were plated overnight at 37° C., following which a single colony forming unit (CFU) was grown in Luria-Bertani (LB) broth at 300 r.p.m. and 80% humidity to an optical density at 600 nm (OD600) of 0.3. Cells were then diluted 1:1,000 in 25 ml LB and grown for 16 h at 37° C., 300 r.p.m. and 80% humidity in 250 ml flasks. Cells were then washed (Spin 5000 rpm (Thermofisher centrifuge) for 15 mins. Samples were then washed with 20 ml of 1× filtered PBS (again spin 5000 rpm for 15 mins) and re-suspended in M9 minimal media. Carbon sources and antibiotics (tobramycin 40 mg/l) were added and samples were incubated at 37° C., 300 r.p.m. and 80% humidity At specified time points, 10-μl aliquots of cells were removed and washed with PBS, serially diluted and spot-plated onto LB agar plates to determine colony-forming units per ml (c.f.u. ml−1). The concentration of carbon sources were normalized to deliver 60 mM carbon (for example 10 mM glucose, 15 mM fumarate, 20 mM pyruvate etc.). Survivors were enumerated by plating 10 ul aliquots with serial dilutions taken from 1 ml spun down and PBS washed (remaining AB). […] Survival was determined by dividing the c.f.u. ml−1 of a sample at each time point by the initial c.f.u. ml−1 for that sample.

A further data set relates to P. aeruginosa persisters. Nature of the data set: Persister cell eradication: carbon sources plus tobramycin, survival by c.f.u. counting. In kind it is cell-based, Pseudomonas aeruginosa. The following applies: for potentiation of antibiotic efficacy / sensitization to aminoglycoside antibiotics: P. aeruginosa cells in various reduced metabolic states, in conjunction with aminoglycosides; for potentiation of tobramycin killing of persisters by carbon source (efficiency of tested metabolites): tobramycin 40 mg/l, carbon sources normalized to 60 mM carbon, M9 minimal media, ciprofloxacin-selected persisters.

The conditions of data set [2]: i.v. administration; cited from earlier work.

In the case of `O=C(O)/C=C/C(=O)O` [fumarate], the “killing with incremental doses of fumarate for a given dose of tobramycin” value in data set [1] (FIG. 2, tobramycin 40 mg/L) is recorded as “increased killing”. In addition, in data set [1] (FIGS. 2A-2B), the “killing of P. aeruginosa in stationary phase by tobramycin” value is recorded as “enables killing”. Besides, in the data set with P. aeruginosa persisters, the “potentiation of antibiotic efficacy / sensitization to aminoglycoside antibiotics” value is “very strong results” and the “potentiation of tobramycin killing of persisters by carbon source (efficiency of tested metabolites)” value is reported as “most potent”.

In the case of `OC[C@@H](O)[C@@H](O)[C@H](O)[C@H](O)CO` [Mannitol, mannitol], in the data set on P. aeruginosa persisters, the “potentiation of tobramycin killing of persisters by carbon source (efficiency of tested metabolites)” value was “not efficient”.

As for `O=C(O)[C@H](O)[C@@H](O)[C@H](O)[C@H](O)CO` [gluconate], the “potentiation of tobramycin killing of persisters by carbon source (efficiency of tested metabolites)” value in the data set on P. aeruginosa persisters was “variable levels of efficiency”.

For `O=C(O)CCC(=O)O` [succinate], in the data set with P. aeruginosa persisters, the “potentiation of antibiotic efficacy / sensitization to aminoglycoside antibiotics” value is “very strong results” and the “potentiation of tobramycin killing of persisters by carbon source (efficiency of tested metabolites)” value is on record as “most potent”.

Regarding `CCC(=O)O` [propionate], in the data set on P. aeruginosa persisters, the “potentiation of antibiotic efficacy / sensitization to aminoglycoside antibiotics” value is recorded as “sensitize the bacterium to aminoglycoside antibiotics” and the “potentiation of tobramycin killing of persisters by carbon source (efficiency of tested metabolites)” value was “recapitulated this to some effect”.

With `NC[C@H]1O[C@H](O[C@H]2[C@H](O)[C@@H](O[C@H]3O[C@H](CO)[C@@H](O)[C@H](N)[C@H]3O)[C@H](N)C[C@@H]2N)[C@H](N)C[C@@H]1O` [tobramycin, reference compound], in data set [2], the “typical peak serum concentration” value was 40 mg/L. For the same compound, the “killing with incremental doses of tobramycin for a given fumarate” value in data set [1] (FIG. 2, administered with fumarate) is recorded as “increased killing; also recorded: higher killing”.

Take `O=C(CO)[C@@H](O)[C@H](O)[C@H](O)CO` [Fructose, fructose]: the “potentiation of tobramycin killing of persisters by carbon source (efficiency of tested metabolites)” value in the data set with P. aeruginosa persisters is “not efficient”.
